Test results: US20150010474A1, “Compounds And Methods For Selective Imaging And/Or Ablation” (Auckland Uniservices Limited, priority 2011, published 2015)

Columns and labels:
NfsB (E.s) = assay: Initial rate of metabolism by purified recombinant bacterial nitroreductase (NADPH consumption, UV/Vis); assay type: biochemical, Enterobacter (Chronobacter) sakazakii; conditions: compound 500 μM, NADPH 200 μM, 10 mM Tris-Cl pH 7.0; μmol NADPH consumed per mg enzyme per minute
Description: (§1) The relative initial rates of reductive metabolism of the nitro moiety of test compounds by bacterial nitroreductase's can be measured experimentally by incubating the test compound at near-saturating concentration (determined empirically) with the purified recombinant bacterial nitroreductase enzymes in the presence of NADPH co-factor. UV/Vis spectroscopy is used to measure consumption of the co-factor, indicating metabolism of the test compound by the nitroreductase.
(§2) Compounds 67, 93 and 97 (500 μM) were added to NADPH (200 μM) in 10 mM Tris-Cl pH 7.0. Reactions were initiated by enzyme addition (between 5 and 20 μg per reaction). Rates represent μmol of NADPH consumed per mg enzyme added per minute.

[1] = system: E. coli SOS (DNA damage repair) response; assay: SOS assay (β-galactosidase activity) in NTR over-expression library; assay type: cell-based, Escherichia coli; conditions: 4 h challenge with 8 μM compound 67
Description: FIG. 2 illustrates the metabolism of compound 67 by members of the 58-membered NTR over-expression library as measured by (A) Growth Inhibition assay and (B) SOS assay. (A) Growth Inhibition assay. Turbidity (OD600) of NTR over-expressing cell cultures was recorded directly before and after 4 h incubation with 400 μM compound 67. Percentage Growth Inhibition represents the decrease in OD600 of challenged cells relative to unchallenged control cells for each strain post-incubation (i.e. 100−[100×OD600 of challenged cells/OD600 of unchallenged cells]). Data are the average of 2 independent assays and the error bars indicate ±1 standard deviation. Labelled bars indicate the NfsA and NfsB family members within the NTR library. (B) SOS assay. […] The data presented is the SOS response, measured by β-galactosidase activity (in Miller units), of NTR over-expressing E. coli SOS-R2 after 4 h challenge with 8 μM compound 67. Full details of assay protocol and calculations are as described in G A Prosser, J N Copp, S P Syddall, E M Williams, J B Smaill, W R Wilson, A V Patterson and D F Ackerley. 2010. Discovery and evaluation of Escherichia coli nitroreductases that activate the anti-cancer prodrug CB1954. Biochemical Pharmacology 79: 678-687. Data are the average of 2 independent assays and the error bars indicate ±1 standard deviation. […]

NfsB (E.c) = target: T1, NfsB (E.c) (Escherichia coli, UniProt P38489); assay: Initial rate of metabolism by purified recombinant bacterial nitroreductase (NADPH consumption, UV/Vis); assay type: biochemical; conditions: compound 500 μM, NADPH 200 μM, 10 mM Tris-Cl pH 7.0; μmol NADPH consumed per mg enzyme per minute
T1 construct: made in house
T1 sequence (P38489 whole entry): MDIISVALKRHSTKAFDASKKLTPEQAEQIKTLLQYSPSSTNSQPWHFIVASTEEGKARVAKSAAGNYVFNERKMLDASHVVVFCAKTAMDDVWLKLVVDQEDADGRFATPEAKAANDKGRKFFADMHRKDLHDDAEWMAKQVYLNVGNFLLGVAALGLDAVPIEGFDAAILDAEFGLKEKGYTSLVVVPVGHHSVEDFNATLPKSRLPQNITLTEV
Description: as §1, §2

SMILES	Rate of metabolism by NfsB (E.s) (NfsB (E.s))	SOS response upon activation [1]	Rate of metabolism by NfsB (E.c) (NfsB (E.c))
Cc1ncc([N+](=O)[O-])n1CC(=O)NCC(F)(F)C(F)(F)F [Compound 67, 2-(2-methyl-5-nitro-1H-imidazol-1-yl)-N-(2,2,3,3,3-pentafluoropropyl)acetamide]	2.4 µmol/min/mg	demonstrates an ability to evoke the E. coli SOS (DNA damage repair) response upon activation	–
O=C(Cn1cnc([N+](=O)[O-])c1)NCC(F)(F)C(F)(F)F [Compound 93, 2-(4-nitro-1H-imidazol-1-yl)-N-(2,2,3,3,3-pentafluoropropyl)acetamide]	–	–	0.82 µmol/min/mg
